Measurements as given in PMC7297445, “Pharmacokinetic/Pharmacodynamic Determination and Preclinical Pharmacokinetics of the β-Lactamase Inhibitor ETX1317 and Its Orally Available Prodrug ETX0282” (ACS Infectious Diseases, 2020).

What was measured:
Plasma protein binding = format: in vitro ADME, monkey
Protocol: Plasma protein binding was determined by rapid equilibrium dialysis. Plasma was freshly prepared from blood samples drawn in to EDTA (anticoagulant) containing tubes. Plasma was prepared using a table-top centrifuge and spun per instruction of the tube manufacturer and specifications (Beckton, Dickinson and Company, Franklin Lakes, NJ) and placed on ice prior to use.
Pooled plasma samples were centrifuged at 2000 rpm (approximately 1400g) for 15 min at 4 °C to remove debris. Approximately 90% of the clear supernatant fraction was transferred to a separate tube. Samples (500 μL) were then spiked with a 100× stock solution 100 μM, 0.5 mM, and 10 mM ETX1317 in DMSO respectively for 1, 5, and 100 μM final concentrations, transferred to the top of the filter chambers, and allowed to equilibrate for 15 min prior to centrifugation. The filtrate tubes were centrifuged at 14000g for 15 min at 4 °C. Next, 50 μL of the filtrate was precipitated with 300 μL of acetonitrile containing 250 ng/mL of carbutamide as the internal standard and the samples were analyzed by LC/MS/MS analysis.

[1] = Human PK prediction (allometric scaling); details: for CL/F / V/F: predicted human
Description: The methodology utilized for prediction of human PK of ETX1317 was consistent with methods used in support of similar chemotypes such as avibactam and ETX2514.[43] Human predictions for volume of distribution (Vd,ss) and clearance (CL) were within 2-fold of observed mean data obtained in Phase 1 studies, with renal clearance as the predominant clearance mechanism.[44],[45] Pharmacokinetic and excretion data from rats, dogs, and monkeys were used collectively for the projection of ETX1317 PK. Liver S9 incubations were also performed across all species (including human) to confirm consistent conversion of ETX0282 to ETX1317 at projected dose levels of ETX0282.[42] Human PK prediction of ETX1317 was completed using single species allometry for volume of distribution from dog PK and dog and monkey single species scaling using liver blood flow to predict non-renal clearance (CLNR).[46] […] While urinary excretion of ETX1317 was lower in dogs relative to monkeys and rats, human renal clearance (CLR) was predicted using dog-human renal correlation,[47] as this method has been highly predictive for compounds that are generally eliminated via renal excretion. The elimination half-life was estimated based upon the combined use of predicted parameters for clearance and volume of distribution, where T1/2 = ln 2*Vd,ss/CLtotal. Allometric scaling predicted human Vd,ss of 0.35 L/kg.
Based upon the non-clinical PK data, a range of 60–80% bioavailability and a moderate absorption rate of 0.5–1.0 h^–1 have been considered for humans. In consideration of these predicted parameters, mean percent fT > CT of 1 μg/mL (2× MIC of 0.5 μg/mL) estimates for a 500 mg ETX1317 equiv q12h dose of ETX0282 are summarized in Table S3.

K. pneumoniae ARC4420 = assay: Chemostat in vitro infection model, dose fractionation; format: cell-based; details: with CPD
Protocol: (§1) The PK/PD driver of ETX1317 was assessed in the presence of CPD in both hollow-fiber[28]−[31] and chemostat[32]in vitro infection model systems. In all cases, CPD was administered q12h via a 2 h infusion and eliminated with a 2 h half-life, with the concentration of drug exceeding the MIC (the MIC of CPD in the presence of ETX1317 at a 1:2 ratio) for 50% of the dosing interval for each strain. Representative Emax plots are shown graphically for Escherichia coli ARC2687 in the hollow-fiber model and Klebsiella pneumoniae ARC4420 in the chemostat system (Figure 2). […] This could partially be attributed to the distribution of the concentration ranges utilized for the hollow-fiber infection model (HFIM) where most of the data scatter occurred in the efficacious dose range for lower MIC strains. It is important to note that initial evaluation of K. pneumoniae ARC4420 and ARC5118 was completed in the HFIM but rapid degradation of CPD, presumably through accumulation of β-lactamases in the extra-capillary space of the cartridge precluded a reliable assessment of the PK/PD driver with these strains in this model.[32] […] In both the HFIM and chemostat models the optimum critical threshold of ETX1317 was established through iterative Emax fitting of a range of ETX1317 concentrations from 0.5× to 2× the CPD:ETX1317 MIC value. In the HFIM, %Time > ETX1317 CT of 2× MIC provided the highest correlation to observed activity which appeared to be independent to the apparent intrinsic activity of ETX1317 (as reflected by ETX1317 MICBLI of K. pneumoniae ARC4486 vs ARC4488). […] In both models CPD infused alone mimicked vehicle control as expected with similar growth of +2 to 4 log10 CFU/mL.
(§2) Enterobacteriaceae isolates E. coli ARC2687 and K. pneumoniae isolates ARC4486, ARC4488, ARC5118, and ARC4420 were prepared for infection from an overnight plate culture. On the day of the experiment, a few colonies of bacteria were inoculated in Mueller Hinton Broth II (MHBII, Sigma-Aldrich, St. Louis, MO) and incubated at 35 °C until reaching log-phase growth, about 1 h. In hollow-fiber studies cell population density is confirmed by turbidimetric assay (OD600) and final dilution is adjusted to deliver approximately 15 mL of bacteria (1 × 10^6 CFU/mL) to the extra-capillary space of the hollow-fiber cartridge (Fibercell Systems, Inc., Frederick, MD). After 1 h, targeted drug concentrations were introduced using a 2 h infusion via a syringe pump (Harvard Apparatus, Holliston, MA). […]
(§3) Dose range and dose fractionation were performed in hollow-fiber infection model (HFIM) and chemostat (one-compartment) in vitro infection model. […] CPD concentrations were targeted to achieve exposure of ∼50%Time > MIC determined in the presence of ETX1317. […]

K. pneumoniae ARC5118 = assay: as above; format: cell-based; details: with CPD
Protocol: as §1, §2, §3

## CC1=C[C@@H](C(N)=O)N2C[C@@H]1N(O[C@H](F)C(=O)O)C2=O [ETX1317]
Plasma protein binding; 1 µM
  Proportion unbound: 77%
Plasma protein binding; 5 µM
  Proportion unbound: 97%
[1]; T1/2 = ln 2*Vd,ss/CLtotal
  predicted human half-life: 1.2 to 1.6 h
[1]; F% 60
  CL/F: 17.6 to 23.7 L/h
  V/F: 41 L
[1]; F% 70
  CL/F: 15.1 to 20.3 L/h
  V/F: 35 L
[1]; F% 80
  CL/F: 13.2 to 17.8 L/h
  V/F: 31 L
K. pneumoniae ARC4420
  %Time > CT of 1 μg/mL for 1–log10 kill: 63%
  %Time > CT of 1 μg/mL for stasis: 59%
K. pneumoniae ARC5118
  %Time > CT of 1 μg/mL for 1–log10 kill: 65%
  %Time > CT of 1 μg/mL for stasis: 60%
